Consider two compounds from patent US20230255912A1, “COMPOSITIONS AND METHODS FOR TREATING CRP-MEDIATED DISEASES” (Ponce de Leon Health Designated Activity Company, priority 2020, published 2023).

Read-outs that look alike come from different tables or passages of the source.

The conditions of series [1]: for Total/HDL: baseline 2.9; for Alkaline phosphatase: baseline 44; for HDL: baseline 64; for Triglycerides: baseline 85; for Glucose: baseline 95; for Cholesterol: baseline 184; for Platelets: baseline 359. The text has this: METHOD EXAMPLE. Blood chemistry. […] Prior to the start of dosing, a baseline blood draw is obtained for hematology, chemistry, CRP measurement, and metabolite analyses. After the start of dosing, blood draws are obtained monthly.

The test system of series [2] is CRP. Put plainly: Blood chemistry of a human volunteer: CRP. Type of series: in vivo. Particulars: for CRP: 1,000 mg Ca-AKG + 900 mcg Vitamin A daily, oral, baseline 4.9. The text has this: METHOD EXAMPLE. Blood chemistry. […] The following results were obtained:
Series [3] concerns inflammatory cytokines. Particulars: female mice, 29 months. Here is the method: METHOD EXAMPLE. Cytokine Levels in Aged Mice. Female mice (18 months) are divided into treatment and untreated groups. Baseline levels of 30 inflammatory cytokines are measured. […] Following treatment, levels of 30 inflammatory cytokines are measured from serum samples and compared to untreated controls.

[4] abbreviates: compared to aged controls, p<0.05.

In the case of `O=C(O)CCC(=O)C(=O)O` [AKG, 2-oxopentanedioic acid], in series [1] (human volunteer, vs baseline), the levels of triglycerides result was “improves” and the “other important biological markers, such as platelets, glucose, PSA” value is recorded as “does not adversely affect”. In addition, the “lowering of CRP” value in series [2] (human volunteer, baseline vs 12 months) is given as “more than 10 fold”.
Take `O.O=C([O-])CCC(=O)C(=O)[O-].[Ca+2]` [Ca-AKG, calcium alpha-ketoglutarate monohydrate]: in series [3] (setting [4]), the “level of IL-3” value is “significantly lower”, the “level of IL-7” value is listed as “significantly lower”, the “level of MIP-1β” value is on record as “significantly lower” and the “level of TNF-α” value is listed as “significantly lower”. Also, the “levels of IL-3, IL-7, TNF-α, and MIP-1β compared to the 18 month baseline” value in series [3] (treatment group vs 18 month baseline) is reported as “statistically indistinguishable”. Further, in series [1] (10 Months), the Total/HDL is 2.4, the Alkaline phosphatase was 40 U/L, the HDL is 76 mg/dL and the Triglycerides is 49 mg/dL. In series [1] (10 Months), this compound gave a Glucose of 104 mg/dL, a Cholesterol of 184 mg/dL and a Platelets of 392 K/CUMM. In series [1] (12 Months), this compound returned a Total/HDL of 2.4, an Alkaline phosphatase of 30 U/L, an HDL of 76 mg/dL and a Triglycerides of 52 mg/dL. In series [1] (12 Months), the Glucose stood at 99 mg/dL, the Cholesterol is 181 mg/dL and the Platelets was 332 K/CUMM. Further, the CRP in series [2] (10 Months) worked out at 2.5 mg/L. Also, the CRP in series [2] (12 Months) was 0.4 mg/L.
